Measurements reported in ChEMBL document CHEMBL1133595, “Discovery of chiral N,N-disubstituted trifluoro-3-amino-2-propanols as potent inhibitors of cholesteryl ester transfer protein” (J Med Chem, 2000).

biological target: T1, Cholesteryl ester transfer protein (Homo sapiens, UniProt P11597); assay: Inhibition of recombinant human CETP-mediated transfer of [3H]CE from HDL to LDL
T1 sequence (P11597 whole entry): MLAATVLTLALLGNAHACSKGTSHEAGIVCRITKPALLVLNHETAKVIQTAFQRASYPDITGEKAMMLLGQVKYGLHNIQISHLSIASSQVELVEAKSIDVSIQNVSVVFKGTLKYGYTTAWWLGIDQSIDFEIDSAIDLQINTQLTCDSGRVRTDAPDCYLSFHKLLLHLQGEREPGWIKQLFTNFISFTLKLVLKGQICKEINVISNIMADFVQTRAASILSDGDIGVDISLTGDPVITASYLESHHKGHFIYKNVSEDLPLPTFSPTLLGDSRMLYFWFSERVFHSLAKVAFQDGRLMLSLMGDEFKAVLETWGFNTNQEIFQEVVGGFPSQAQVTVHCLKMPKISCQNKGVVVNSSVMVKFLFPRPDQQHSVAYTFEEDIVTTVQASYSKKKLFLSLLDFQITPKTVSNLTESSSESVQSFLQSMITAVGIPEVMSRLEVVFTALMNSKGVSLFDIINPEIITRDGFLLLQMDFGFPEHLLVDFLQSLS

Compound | IC50
OC(CN(Cc1cccc(C(F)(F)F)c1)c1ccccc1)C(F)(F)F (stereo not drawn) | 15 µM
OC(CN(Cc1cccc(C(F)(F)F)c1)c1cccc(F)c1)C(F)(F)F (stereo not drawn) | 40 µM
OC(CN(Cc1ccccc1C(F)(F)F)c1cccc(F)c1)C(F)(F)F (stereo not drawn) | > 100 µM
Cc1cccc(CN(CC(O)C(F)(F)F)c2cccc(F)c2)c1 (stereo not drawn) | > 100 µM
OC(CN(Cc1ccccc1)c1cccc(F)c1)C(F)(F)F (stereo not drawn) | > 100 µM
COc1cc(N(Cc2cccc(SC(F)(F)F)c2)C[C@@H](O)C(F)(F)F)cc(OC)c1OC | 5 µM
OC(CN(Cc1ccc(OC(F)(F)F)cc1)c1cccc(Oc2ccccc2)c1)C(F)(F)F (stereo not drawn) | 4 µM

biological target: T1, Cholesteryl ester transfer protein; assay: Tested for inhibiting CETP-mediated transfer of [3H]-CE from HDL to LDL in vitro under buffered assay conditions in human serum.; assay type: cell-free

Compound | IC50
OC(CN(Cc1cccc(C(F)(F)F)c1)c1cccc(F)c1)C(F)(F)F (stereo not drawn) | > 200 µM
